The record followed here is the supplement of paper PMC11208160.

The nature of the data set: recombinant barcode read abundance after kanamycin selection (control-corrected) (log10(CPM+1)); higher = more efficient recombination; sequences stand for … in AGTGCAGAGAAAATCGGCCAGTTTTCTCTGCCTGCAGTCCGCATGCCGT…AGATTTATGCAGCGGACTGCCTTTCTCCCAAAGTGATAAACCGGACAGTATCATGGACCGGTTTTCCCGGTAATCCGTATTTGCAAGGTTGGTTTCACT; site = the 11-nt target. The method, boiled down: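 The screen was pooled in E. coli and paired targets with IS621 bridge RNA target-binding loops. Recombination efficiency is taken from barcode counts per million at recombinant junctions, averaged and adjusted against the control. Values, in the form log10(CPM+1), come from duplicate plating on chloramphenicol/ampicillin LB agar or on chloramphenicol/ampicillin/kanamycin with 0.1 mM IPTG.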
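Further: IS621 recombinase and bridge RNA in Escherichia coli cells.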

“CTACGTCCTTGGGTTCTAACCTGTTGCTG (site CTACGTCCTGA)”: the “recombinant barcode read abundance (log10)” value worked out at 0.203.
The result for “CTACGTCCTTGGGTTCTAACCTGTTGCTG (site CTACGTCCTTA)” reads 0.0883; that for “CTACGTCCTTGGGTTCTAACCTGTTGCTT (site CTACGTCCTAA)”, 1.04.
As to “CTACGTCCTTGGGTTCTAACCTGTTGCTT (site CTACGTCCTCA)”, the “recombinant barcode read abundance (log10)” value was 0.14.
As for “CTACGTCCTTGGGTTCTAACCTGTTGCTT (site CTACGTCCTGA)”, the “recombinant barcode read abundance (log10)” value was determined as 0.297.
Take “CTACGTCCTTGGGTTCTAACCTGTTGCTT (site CTACGTCCTTA)”: the “recombinant barcode read abundance (log10)” value was determined as 0.0433.
Then “CTACGTTCTTGGGTTCTAACCTGTTGCCT (site CCACGTTCTAG)”, with 0.761; and “CTACGTTCTTGGGTTCTAACCTGTTGCCT (site CTACGTTCTAG)”, with 1.05; and “CTACTAACTTGGGTTCTAACCTGTTGCAT (site CTACTAACTAA)”, with 0.173.
Then “CTACTAACTTGGGTTCTAACCTGTTGCAT (site CTACTAACTAC)”, with 0.149; and “CTACTAACTTGGGTTCTAACCTGTTGCAT (site CTACTAACTAG)”, with 0.268.
The result for “CTACTAACTTGGGTTCTAACCTGTTGCAT (site CTACTAACTAT)” reads 1.34; that for “CTACTAACTTGGGTTCTAACCTGTTGCTT (site CTACTAACTAA)”, 0.316; that for “CTACTAACTTGGGTTCTAACCTGTTGCTT (site CTACTAACTAC)”, 0.0509.
For the sequence “CTACTAACTTGGGTTCTAACCTGTTGCTT (site CTACTAACTAG)”, the “recombinant barcode read abundance (log10)” value amounted to 0.0714.
The result for “CTACTAACTTGGGTTCTAACCTGTTGCTT (site CTACTAACTAT)” reads 0.0517; that for “CTACTAGCTTGGGTTCTAACCTGTTGCAA (site CTACTAGCTAT)”, 0.196; that for “CTACTAGCTTGGGTTCTAACCTGTTGCAA (site CTACTAGCTCT)”, 0.617.
“CTACTAGCTTGGGTTCTAACCTGTTGCAA (site CTACTAGCTGT)”: the “recombinant barcode read abundance (log10)” value was determined as 0.0288.
The result for “CTACTAGCTTGGGTTCTAACCTGTTGCAA (site CTACTAGCTTT)” reads 1.25; that for “CTAGACACTTGGGTTCTAACCTGTTGCGG (site CTAGACACTCC)”, 2.14.
The result for “CTAGACACTTGGGTTCTAACCTGTTGCGG (site CTGGTCACTCC)” reads 0.0881.
The result for “CTAGACCCTTGGGTTCTAACCTGTTGCCT (site ATAGACCCTAG)” reads 0.347; that for “CTAGACCCTTGGGTTCTAACCTGTTGCCT (site CTAGACCCTAG)”, 1.95.
For the sequence “CTAGACCCTTGGGTTCTAACCTGTTGCCT (site GTAGACCCTAG)”, the “recombinant barcode read abundance (log10)” value amounted to 0.223.
As for “CTAGACCCTTGGGTTCTAACCTGTTGCCT (site TTAGACCCTAG)”, the “recombinant barcode read abundance (log10)” value came to 0.0677.
Then “CTAGACTCTTGGGTTCTAACCTGTTGCTG (site CTAGACTCTAA)”, with 0.136.
Turning to “CTAGACTCTTGGGTTCTAACCTGTTGCTG (site CTAGACTCTCA)”, the “recombinant barcode read abundance (log10)” value was determined as 2.73.
The result for “CTAGACTCTTGGGTTCTAACCTGTTGCTG (site CTAGACTCTGA)” reads 0.076.
The result for “CTAGACTCTTGGGTTCTAACCTGTTGCTG (site CTAGACTCTTA)” reads 0.188; that for “CTAGCCTCTTGGGTTCTAACCTGTTGCAT (site CTAACCTCTAT)”, 0.739; that for “CTAGCCTCTTGGGTTCTAACCTGTTGCAT (site CTACCCTCTAT)”, 0.582.
In the case of “CTAGCCTCTTGGGTTCTAACCTGTTGCAT (site CTAGCCTCTAT)”, the “recombinant barcode read abundance (log10)” value amounted to 2.38.
The result for “CTAGCCTCTTGGGTTCTAACCTGTTGCAT (site CTATCCTCTAT)” reads 0.0542.
Consider “CTAGCGACTTGGGTTCTAACCTGTTGCTG (site CTAGCCACTTA)”, for which the “recombinant barcode read abundance (log10)” value worked out at 0.
Then “CTAGCGACTTGGGTTCTAACCTGTTGCTG (site CTAGCGACTCA)”, with 0.287.
With “CTAGGAGCTTGGGTTCTAACCTGTTGCGT (site CTAGAAGCTAC)”, the “recombinant barcode read abundance (log10)” value came out at 1.84.
Then “CTAGGAGCTTGGGTTCTAACCTGTTGCGT (site CTAGGAGCTAC)”, with 2.12; and “CTAGGATCTTGGGTTCTAACCTGTTGCGT (site CTAGGATCTAC)”, with 2.77; and “CTAGGATCTTGGGTTCTAACCTGTTGCGT (site CTAGTCTCTAC)”, with 0.152.
Then “CTAGGCCCTTGGGTTCTAACCTGTTGCAT (site CTAGGCCCTAA)”, with 0.379; and “CTAGGCCCTTGGGTTCTAACCTGTTGCAT (site CTAGGCCCTAC)”, with 1.97.
The result for “CTAGGCCCTTGGGTTCTAACCTGTTGCAT (site CTAGGCCCTAG)” reads 0.318.
“CTAGGCCCTTGGGTTCTAACCTGTTGCAT (site CTAGGCCCTAT)”: the “recombinant barcode read abundance (log10)” value was 2.77.
The result for “CTAGTAGCTTGGGTTCTAACCTGTTGCTC (site CTAGTAGCTGA)” reads 1.74.
With “CTAGTAGCTTGGGTTCTAACCTGTTGCTC (site GTAGCAGCTGA)”, the “recombinant barcode read abundance (log10)” value is 0.331.
Then “CTAGTCACTTGGGTTCTAACCTGTTGCAC (site CTAGTCACTGT)”, with 2.81; and “CTAGTCACTTGGGTTCTAACCTGTTGCAC (site CTAGTGTCTGT)”, with 0.0438.
Then “CTAGTTGCTTGGGTTCTAACCTGTTGCAA (site CTAATTGCTTT)”, with 0.0799.
Then “CTAGTTGCTTGGGTTCTAACCTGTTGCAA (site CTACTTGCTTT)”, with 0.229; and “CTAGTTGCTTGGGTTCTAACCTGTTGCAA (site CTAGTTGCTTT)”, with 0.328.
“CTAGTTGCTTGGGTTCTAACCTGTTGCAA (site CTATTTGCTTT)”: the “recombinant barcode read abundance (log10)” value came out at 0.0786.
The result for “CTATAGACTTGGGTTCTAACCTGTTGCCA (site CTATAGACTTG)” reads 0.079.
On to “CTATAGACTTGGGTTCTAACCTGTTGCCA (site CTCTAGACTAG)”, for which the “recombinant barcode read abundance (log10)” value is 0.206.
The result for “CTATCGACTTGGGTTCTAACCTGTTGCCT (site CTATAGACTAG)” reads 0.0416; that for “CTATCGACTTGGGTTCTAACCTGTTGCCT (site CTATCGACTAG)”, 0.766; that for “CTATCGACTTGGGTTCTAACCTGTTGCCT (site CTATGGACTAG)”, 0.163.
The result for “CTATCGACTTGGGTTCTAACCTGTTGCCT (site CTATTGACTAG)” reads 0.0575; that for “CTATCGTCTTGGGTTCTAACCTGTTGCCT (site ATATCGTCTAG)”, 0.0956.
